Measurements taken from PMC5666756, “Fascaplysin Exerts Anti-Cancer Effects through the Downregulation of Survivin and HIF-1α and Inhibition of VEGFR2 and TRKA” (International Journal of Molecular Sciences, 2017).

Columns and labels:
Format in all cases: biochemical
[1] = molecular target: T1, VEGFR2 (vascular endothelial growth factor receptor 2) (Homo sapiens, UniProt P35968); assay: radiometric kinase assay ([γ-33P]ATP), IC50 at several ATP concentrations, Lineweaver-Burk
T1 construct: gene KDR
Excerpt: radiometric kinase assay ([γ-33P]ATP), IC50 at several ATP concentrations, Lineweaver-Burk on VEGFR2 (vascular endothelial growth factor receptor 2) | fascaplysin is noncompetitive with respect to ATP against TRKA and VEGFR2

[2] = molecular target: T2, TRKA (tropomyosin-related kinase A) (Homo sapiens, UniProt P04629); assay: as above
T2 construct: gene NTRK1; recombinant human cytoplasmic domain (aa 441–796), C-terminal His-tagged

VEGFR3 = molecular target: T3, VEGFR3 (Homo sapiens, UniProt P35916); assay: high-throughput kinase screening assay (IC50, Figure S4)
T3 construct: gene FLT4

Measured: IC50

T1 sequence (P35968 789-1356): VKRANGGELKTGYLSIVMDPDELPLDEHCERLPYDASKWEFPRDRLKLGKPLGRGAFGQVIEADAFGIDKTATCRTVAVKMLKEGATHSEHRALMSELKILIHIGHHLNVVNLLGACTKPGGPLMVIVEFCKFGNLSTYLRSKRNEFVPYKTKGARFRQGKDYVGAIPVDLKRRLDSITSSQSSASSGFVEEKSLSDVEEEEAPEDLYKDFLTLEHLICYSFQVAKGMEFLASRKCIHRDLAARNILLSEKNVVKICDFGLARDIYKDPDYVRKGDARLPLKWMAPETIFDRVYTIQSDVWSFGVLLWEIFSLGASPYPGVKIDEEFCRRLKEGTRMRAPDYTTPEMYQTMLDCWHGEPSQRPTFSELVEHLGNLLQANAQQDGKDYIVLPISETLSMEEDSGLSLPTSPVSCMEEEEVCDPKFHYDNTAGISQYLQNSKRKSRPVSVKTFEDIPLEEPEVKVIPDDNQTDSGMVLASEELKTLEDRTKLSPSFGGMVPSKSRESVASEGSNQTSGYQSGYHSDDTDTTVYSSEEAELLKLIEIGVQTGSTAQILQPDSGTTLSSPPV
T3 sequence (P35916 25-1363): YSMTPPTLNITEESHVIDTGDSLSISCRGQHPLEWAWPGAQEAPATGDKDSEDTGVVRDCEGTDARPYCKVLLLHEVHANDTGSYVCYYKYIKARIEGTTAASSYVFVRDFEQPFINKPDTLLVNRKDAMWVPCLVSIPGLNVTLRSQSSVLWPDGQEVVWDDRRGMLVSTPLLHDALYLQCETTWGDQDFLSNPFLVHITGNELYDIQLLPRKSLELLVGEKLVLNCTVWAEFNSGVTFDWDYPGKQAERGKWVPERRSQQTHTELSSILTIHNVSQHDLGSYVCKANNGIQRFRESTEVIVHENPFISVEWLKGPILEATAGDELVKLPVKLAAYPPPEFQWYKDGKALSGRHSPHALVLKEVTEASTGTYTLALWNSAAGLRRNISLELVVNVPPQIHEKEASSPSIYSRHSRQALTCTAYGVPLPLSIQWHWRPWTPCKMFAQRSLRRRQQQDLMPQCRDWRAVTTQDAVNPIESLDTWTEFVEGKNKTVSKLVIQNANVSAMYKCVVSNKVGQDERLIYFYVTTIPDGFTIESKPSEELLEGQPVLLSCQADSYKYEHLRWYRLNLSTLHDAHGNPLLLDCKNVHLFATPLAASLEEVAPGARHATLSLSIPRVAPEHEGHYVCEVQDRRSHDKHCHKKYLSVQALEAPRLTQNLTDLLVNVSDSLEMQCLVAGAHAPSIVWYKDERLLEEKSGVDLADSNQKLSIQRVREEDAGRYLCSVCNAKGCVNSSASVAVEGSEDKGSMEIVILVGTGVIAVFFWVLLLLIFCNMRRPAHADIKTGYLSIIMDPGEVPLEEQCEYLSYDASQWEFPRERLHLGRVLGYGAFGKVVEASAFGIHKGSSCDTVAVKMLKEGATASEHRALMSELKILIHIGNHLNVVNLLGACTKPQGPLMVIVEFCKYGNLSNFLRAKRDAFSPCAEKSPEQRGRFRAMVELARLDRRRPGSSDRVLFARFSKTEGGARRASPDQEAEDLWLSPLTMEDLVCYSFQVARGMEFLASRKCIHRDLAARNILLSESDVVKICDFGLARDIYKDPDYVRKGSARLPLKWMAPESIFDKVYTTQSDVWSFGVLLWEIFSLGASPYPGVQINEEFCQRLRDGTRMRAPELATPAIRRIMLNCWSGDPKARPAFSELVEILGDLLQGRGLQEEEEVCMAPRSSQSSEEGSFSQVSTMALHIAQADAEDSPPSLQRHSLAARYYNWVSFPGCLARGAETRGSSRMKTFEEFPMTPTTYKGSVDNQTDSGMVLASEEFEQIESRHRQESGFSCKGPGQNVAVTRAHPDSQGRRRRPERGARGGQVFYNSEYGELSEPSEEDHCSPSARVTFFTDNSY
T2 sequence (P04629 441-796): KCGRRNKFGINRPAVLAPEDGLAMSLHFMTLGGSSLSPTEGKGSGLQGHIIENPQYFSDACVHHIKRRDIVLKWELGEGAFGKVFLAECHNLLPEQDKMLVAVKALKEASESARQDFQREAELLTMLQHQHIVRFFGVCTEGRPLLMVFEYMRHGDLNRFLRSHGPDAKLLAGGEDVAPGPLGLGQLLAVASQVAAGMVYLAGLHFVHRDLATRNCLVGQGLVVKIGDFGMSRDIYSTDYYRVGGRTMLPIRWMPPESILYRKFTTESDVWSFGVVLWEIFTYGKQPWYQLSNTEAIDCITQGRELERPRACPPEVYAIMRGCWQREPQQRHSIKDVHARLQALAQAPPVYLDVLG

O=C1c2ccccc2-[n+]2ccc3c([nH]c4ccccc43)c21 [Fascaplysin]
2000 to 3000 nM: all assays above
